{"source": "patent US20240050950A1", "about": "“GRADIENT-BASED MICROFLUIDIC CIRCUIT, DEVICE, AND METHOD FOR PERFORMING AN ASSAY” (priority 2020, published 2024)", "key": {"[1]": {"tested_on": "yrKHK S. cerevisiae yeast strain (DBY12549)", "format": "cell-based, Saccharomyces cerevisiae", "conditions": "MVM2 platform", "description": "Yeast culture medium, strains, and growth. Yeast cell growth and standard laboratory manipulations were performed as described (Guthrie and Fink, “Guide to Yeast Genetics and Molecular and Cellular Biology,” Methods in Enzymol. Part C 351 Gulf Professional Publishing (2002), which is hereby incorporated by reference in its entirety). All media used was either minimal medium (YNB; 0.67% yeast nitrogen base without amino acids plus 2% indicated carbon sources) or rich medium (YP; 2% bacto peptone, 1% yeast extract, 2% indicated carbon sources). Additionally, for fluorescence microscopy, low-fluorescence medium was used (standard minimal medium with 2% glucose, except YNB is prepared without riboflavin or folic acid to reduce background fluorescence) (Sheff and Thorn, “Optimized Cassettes for Fluorescent Protein Tagging in Saccharomyces cerevisiae,” Yeast 21:661-670 (2004), which is hereby incorporated by reference in its entirety). The yeast strains used in this study were DBY12000 and DBY12549. DBY12000 is a wild-type yeast strain (i.e., WT) with a genotype of MATa prototrophic HAP1^+ derivative of FY4. DBY12549 or yrKHK is the mutant of the wild-type yeast strain, which is sensitive to fructose and has a genotype of MATa HAP1^+ can1Δ::TDH3pr-yrKHK.\nThen, as an example, the platform was used to study recessive human metabolic diseases, specifically measuring sugar-phosphate toxicity. […]. The data obtained using the MVM^2 platform precisely pinpointed the binary ‘Yes/No’ sensitivity response of the yrKHK strain to fructose (Yes) and glucose (No), as shown in FIGS. 35A-C and FIGS. 36A-C, respectively.\nIn this case, the functionality and validity of the MVM^2 platform was used to test for these known “eukaryote cells/sugars” pairs. Consequently, sugars (fructose and glucose) were chosen as the small molecules to show the feasibility of testing small molecules on eukaryotic cells in the MVM^2 platform. A wild-type S. cerevisiae, DBY12000, yeast strain (namely, WT) and its genetically modified DBY12549 mutant (called yrKHK) were chosen.. […]"}, "[2]": {"tested_on": "wild-type S. cerevisiae strain (DBY12000)", "test": "Sugar test in MVM2 platform, 10 h yeast culture", "format": "cell-based, Saccharomyces cerevisiae", "conditions": "0.007-7%", "description": "Yeast culture medium, strains, and growth. Yeast cell growth and standard laboratory manipulations were performed as described (Guthrie and Fink, “Guide to Yeast Genetics and Molecular and Cellular Biology,” Methods in Enzymol. Part C 351 Gulf Professional Publishing (2002), which is hereby incorporated by reference in its entirety). All media used was either minimal medium (YNB; 0.67% yeast nitrogen base without amino acids plus 2% indicated carbon sources) or rich medium (YP; 2% bacto peptone, 1% yeast extract, 2% indicated carbon sources). Additionally, for fluorescence microscopy, low-fluorescence medium was used (standard minimal medium with 2% glucose, except YNB is prepared without riboflavin or folic acid to reduce background fluorescence) (Sheff and Thorn, “Optimized Cassettes for Fluorescent Protein Tagging in Saccharomyces cerevisiae,” Yeast 21:661-670 (2004), which is hereby incorporated by reference in its entirety). The yeast strains used in this study were DBY12000 and DBY12549. DBY12000 is a wild-type yeast strain (i.e., WT) with a genotype of MATa prototrophic HAP1^+ derivative of FY4. […]\nWild-type vs. Glucose (outcome: not sensitive): In FIGS. 37A-D and FIG. 38, the WT yeast strain exposed with glucose and fructose, respectively. The yeast growth was monitored for any “yeast/sugar” pair within 10 h culture at two time points (t=0 and 10 h). […]"}, "yrKHK strain": {"tested_on": "yrKHK strain", "conditions": "reported elsewhere; cited from earlier work"}, "WT strain": {"tested_on": "WT strain", "conditions": "reported elsewhere; cited from earlier work"}, "[3]": {"conditions": "Table 3, antifungal drugs and other molecules; cited from earlier work"}}}
{"smiles": "O=C(CO)[C@@H](O)[C@H](O)[C@H](O)CO", "note": "[D-fructose]", "values": [{"measurement": "binary Yes/No sensitivity response", "setting": "[1]; 0.007-7 wt %", "value": "Yes"}, {"measurement": "critical sensitivity concentration", "setting": "[1]; 10 h", "value": 1.13, "unit": "wt %"}, {"measurement": "concentration range within which yeast growth is stopped", "setting": "[1]; microchambers R8-R12, 10 h", "value": "0.7-1.113 wt %"}, {"measurement": "outcome (sensitivity)", "setting": "[2]", "value": "not sensitive"}, {"measurement": "sensitivity/resistance", "setting": "yrKHK strain", "value": "sensitive"}, {"measurement": "sensitivity/resistance", "setting": "WT strain", "value": "resistant"}, {"measurement": "Molar volume", "setting": "[3]", "value": 113.3, "unit": "cm^3"}]}
